This note sets out measurements from patent US9144556B2, “Composition for promoting lipolysis” (LION CORPORATION, priority 2011, dated 2015).

The subject of this assay is rat mesenteric adipocytes. The assay is described as follows: Rate of promoting lipolysis (glycerol quantification in culture supernatant of rat mesenteric adipocytes). It is filed as cell-based. Conditions: for Rate of promoting lipolysis of the combination compared with the value obtained by adding the rates of the single preparations (synergy): combined preparation versus sum of single preparations at corresponding concentration; for Rate of promoting lipolysis (combined preparation (+ lactoferrin 10 ppm)) / Rate of promoting lipolysis (combined preparation (+ lactoferrin 30 ppm)) / Rate of promoting lipolysis (single preparation): 48 hours, additive free group = 0%; for Rate of promoting lipolysis (single preparation): relative glycerol amount. How it is done:
Promoting the breakdown of the fat by the composition for promoting the lipolysis of the present invention can be confirmed, for example, by conducting Examples. That is, a sample is added to a precursor adipocyte prepared from rat mesenteric tissue, and glycerol is quantified. A commercially available kit such as F-Kit Glycerol (supplied from Roche, product number: 14820) may be used for the quantification. When the amount of obtained glycerol is larger than the amount of glycerol when the sample was not added, it can be confirmed that the lipolysis was promoted.
Two SD rats (male, 10 weeks of age, Japan SLC, Inc.) were used. The rats were euthanized under anesthesia with ether and anatomized, and mesenteric adipose tissue was removed. The obtained tissue was placed in a sterilized petri dish, immersed in ice-cold saline (Otsuka Normal Saline, supplied from Otsuka Pharmaceutical Co., Ltd.) containing 1% antibiotic (Antibiotic-Antimycotic Stabilized, supplied from Sigma, A5955), and washed to remove blood and hairs, particularly lymphocytes (washed several times with different saline until no hair was visible). The tissue was cut using ophthalmic scissors (cut 25 times per 1 g of the tissue), and dispersed by stirring every several minutes in a PBS solution containing 1 mg/mL of collagenase (Collagenase S-1 derived from Actinomycetes, supplied from Nitta Gelatin Inc.) at 37° C. for 40 minutes. Roughly, the tissue from one rat was treated with 20 mL of the collagenase solution.
The tissue suspension was filtrated through a cell strainer with a pore size of 100 μm (REF352360 supplied from BD Falcon). Subsequently, a viscosity of the suspension was reduced by adding 20 mL of DMEM (Dulbecco's Modified Eagle's Medium-high glucose, D5796 supplied from Sigma), and then the suspension was centrifuged at 800 rpm for 10 minutes. An oil layer in an upper layer was removed using an aspirator, and then, the resulting suspension was resuspended and filtrated through a cell strainer with a pore size of 70 μm (REF352350 supplied from BD Falcon). After centrifuging at 800 rpm for 15 minutes, it was confirmed that there was no suspended cell in a supernatant, the presence of a pellet was confirmed, and then the supernatant was removed. The pellet was suspended in 5 mL of DMEM (serum free), the suspension was centrifuged at 800 rpm for 15 minutes, and then the supernatant was removed.
The resulting pellet was gently suspended in 5 mL of a medium for visceral adipocyte differentiation (Visceral Adipocyte Culture Medium, 250 mL, code: VACMR supplied from Primary Cell Co., Ltd.). The suspension was diluted to 10 times, and the number of cells was counted and was 1.015×10^7 cells/mL. 2.54×10^7 cells could be recovered from one rat. The cells suspended in the medium were placed so as to be at 6×10^6 cells/24-wells and 500 μL/well, and their cultivation was started. On the following day, 500 μL of the medium was added, and subsequently the medium was changed every third day. […]. On the 6th day after the start of the cultivation, the medium was changed to a medium containing each sample. A culture supernatant was collected 48 hours after adding the sample, and the cultivation was terminated. It was visually confirmed that there was no cytotoxicity in all of the cultivations.
A concentration of lactoferrin was adjusted to 30 ppm or 10 ppm, and lactoferrin at each concentration was used as the sample for evaluating the effect of lactoferrin alone (Comparative Experimental example 1). Each ingredient other than lactoferrin was used as the sample for evaluating the effect of a single preparation alone as follows. Lactoferrin and each ingredient other than lactoferrin were adjusted to the following concentrations and mixed to use as the sample for evaluating the effect of a combined preparation (Experimental Examples 1 to 9 and Comparative Experimental Examples 2 to 4). […]

[1] abbreviates: ingredient 10 ppm + lactoferrin 10 ppm.
[2] abbreviates: ingredient 10 ppm + lactoferrin 30 ppm.
The mark [3] stands for this setting: ingredient 30 ppm + lactoferrin 10 ppm.
[4] abbreviates: ingredient 30 ppm + lactoferrin 30 ppm.

Regarding `O=C(/C=C/c1ccc(O)c(O)c1)O[C@@H]1C[C@](O)(C(=O)O)C[C@@H](O)[C@H]1O` [Chlorogenic acid, chlorogenic acid], the “Rate of promoting lipolysis of the combination compared with the value obtained by adding the rates of the single preparations (synergy)” value is “No prominently synergistic effect”. Also, the “Rate of promoting lipolysis (combined preparation (+ lactoferrin 10 ppm))” value under setting [1] was determined as 12%. In addition, the “Rate of promoting lipolysis (combined preparation (+ lactoferrin 30 ppm))” value under setting [2] stood at 20%. In addition, the “Rate of promoting lipolysis (single preparation)” value (“Rate … (single preparation)” below) (ingredient 10 ppm alone) is recorded as 3%. The “Rate of promoting lipolysis (combined preparation (+ lactoferrin 10 ppm))” value under setting [3] was determined as 14%. In addition, the “Rate of promoting lipolysis (combined preparation (+ lactoferrin 30 ppm))” value under setting [4] was determined as 22%. Further, the “Rate … (single preparation)” value (ingredient 30 ppm alone) is listed as 5%.
Take `O=C(O[C@@H]1Cc2c(O)cc(O)cc2O[C@@H]1c1cc(O)c(O)c(O)c1)c1cc(O)c(O)c(O)c1` [Epigallocatechin gallate, epigallocatechin gallate]: the “Rate of promoting lipolysis of the combination compared with the value obtained by adding the rates of the single preparations (synergy)” value is recorded as “No prominently synergistic effect”. Besides, the “Rate of promoting lipolysis (combined preparation (+ lactoferrin 10 ppm))” value under setting [1] turned out to be 11%. For the same compound, the “Rate of promoting lipolysis (combined preparation (+ lactoferrin 30 ppm))” value under setting [2] came to 21%. The “Rate … (single preparation)” value (ingredient 10 ppm alone) is −6%. Moreover, the “Rate of promoting lipolysis (combined preparation (+ lactoferrin 10 ppm))” value under setting [3] is 13%. In addition, the “Rate of promoting lipolysis (combined preparation (+ lactoferrin 30 ppm))” value under setting [4] is recorded as 24%. Where the note is “ingredient 30 ppm alone”, the “Rate … (single preparation)” value is 3%.
Consider `CC(=O)CCc1ccc(O)cc1` [Raspberry ketone, 4-(4-hydroxyphenyl)-2-butanone], for which the “Rate of promoting lipolysis (combined preparation (+ lactoferrin 10 ppm))” value reads like this: under setting [1], 22%; (ingredient 10 ppm + lactoferrin 10 ppm, listed as raspberry ketone) “more excellent effect of promoting the lipolysis than in the case of lactoferrin 10 ppm alone”; under setting [3], 34%. For the same compound, the “Rate of promoting lipolysis (combined preparation (+ lactoferrin 30 ppm))” value is recorded as 57% under setting [2] and 70% under setting [4]. In addition, the “Rate … (single preparation)” value runs as follows: (ingredient 10 ppm alone) −2%; (ingredient 10 ppm alone, listed as raspberry ketone) “rather inhibited the lipolysis”; (ingredient 30 ppm alone) 10%.
In the case of Lactoferrin, the “Rate … (single preparation)” value reads like this: (ingredient 10 ppm alone) 12.1%; (ingredient 30 ppm alone) 21.3%.
